According to patent US9365541B2, “Compounds for use in the treatment of parasitic diseases” (IRBM—SCIENCE PARK S.P.A., priority 2012, dated 2016):

Experiments:
[1] = test system: Plasmodium falciparum 3D7; experiment: P. falciparum growth inhibition assay (Pf-LDH); format: cell-based; details: Plasmodium falciparum
Experimental: Basic culture of Plasmodium falciparum 3D7 parasites (Malaria Research and Reference Reagent Resource Center (MR4), MR4 Number: MRA-102).
Starting with a culture with a parasitemia of about 10% (and 5% hematocrit), 0.5 ml of the culture is placed in a fresh 100 mm petri dish with 0.95 ml of fresh erythrocytes (50% hematocrit) and 8.55 ml of culture medium, giving a new starting parasitemia of 0.5%. The petri dish is then incubated at 37° C. in a humidified gas-tight plastic box flushed with a gas mixture consisting of 93% N2, 4% CO2, and 3% O2. The culture medium is changed daily. The supernatant is removed by gently tipping the dish without disturbing the settled cells and aspirating the medium with a Pasteur pipette connected to a vacuum pump. A small amount of the concentrated cells is taken to prepare a blood smear for determination of the parasitemia. Normally, the cultures are split twice a week. If the parasites are growing very slowly then fresh erythrocytes are added to the culture no later than after 7 days. The cultures are then split 1:2 if the parasitemia is lower than 0.5%. To avoid the necessity of daily medium change on weekends, a culture with a 2.5% hematocrit and 0.1-0.2% parasitemia is set up and can be left for 3 days without medium change.
Standard medium consists of RPMI 1640, supplemented with 25 mM HEPES, 24 mM NaHCO3, 0.36 mM hypoxanthine, 100 μg/ml Neomycin, 5 g/1 Albumax® II, and washed human red blood cells (rbcs) A+.
P. falciparum Growth Inhibition Assay (Pf-LDH)
Compounds of the invention were assessed for in vitro antimalarial activity against a cloroquine sensitive (3D7) strain of the malaria parasite Plasmodium falciparum, using a lactate dehydrogenase (PfLDH) assay.
EC50 Determination by Pf-LDH Assay
384 plates (where compounds to be tested are dispensed) with 25 μl of parasite inoculum (parasitemia: 0.25%, hematocrit: 2%) are incubated at 37° C. in an atmosphere of 4% CO2, 3% O2, 93% N2. After 72 h of incubation, plates are frozen at −70° C. overnight and thawed at room temperature for at least 4 h. To evaluate PfLDH activity, 70 μl of freshly made reaction mix (143 mM sodium L-lactate, 143 μM 3-acetyl pyridine adenine dinucleotide (APAD), 178.75 μM Nitro Blue tetrazolium chloride (NBT), 286 μg/ml diaphorase (2.83 U/ml), 0.7% Tween 20, 100 mM Tris-HCl pH 8.0) is dispensed using a Multidrop Combi dispenser. Plates are shaken to ensure mixing and absorbance at 650 nm is monitored in a plate reader after 10 min of incubation at room temperature.
Negative controls (0% Effect) are produced by addition of DMSO to the proper wells.
Positive controls (100% Effect) are produced by addition of 150 nM Artemisinin (Sigma-Aldrich, 361593)
After result normalization using positive and negative controls, compound potency is determined by fitting the following equation: % inh=Ymin+(Ymax−Ymin)/(1+(X/EC50)^slope)) Where: • Ymin=minimum percentage effect • Ymax=maximum percentage effect • EC50=the concentration of the compound at which 50% effect is reached • Slope=the slope of the curve calculated at the EC50 Histone Hyperacetylation and Immunodetection of Altered Histone Modifications Assay

[2] = molecular target: T1, human HDAC1 (Homo sapiens, UniProt Q13547); experiment: Homo sapiens HDAC1 inhibition assay (Fluor-de-Lys, enzymatic); format: biochemical; details: human HDAC enzymatic assay; read-out: hHDAC IC50
T1 construct: made in house; host or cells: HeLa (ATCC CCL-2), mammalian cells
Experimental: Biology Homo sapiens HDAC1 Inhibition Assay Overview:
The aim of the assay is to evaluate the inhibition of the deacetylase activity of human HDAC1. To such goal an acetylated substrate is added to the enzyme mix; the resulting enzymatic product is converted to a fluorescent molecule by the addition the enzyme trypsine (developer solution). Fluorescence intensity is inversely proportional to the rate of inhibition of the enzyme (as indicated in the material section below).
Reagents of the HDAC Fluorescent Activity Assay are purchased from Enzo Life Sciences (http://www.enzolifesciences.com/BML-AK500/fluor-de-lys-hdac-fluorometric-activity-assay-kit/) and feature the Fluor-de-Lys™ Substrate/Developer System.
c) Trichostatin A (TSA) Stock
TSA (Sigma-Aldrich, T8552) is provided as a 10 mM stock solution in 100% dimethylsulfoxide (DMSO).
Diluted Substrate Solution
The final concentration in the assay is 20 μM.
Diluted Developer Solution
2 μM [final] TSA to this solution increases its ability to stop the reaction.
The HDAC1 enzyme is diluted in assay buffer prior to each use from a fresh aliquot of enzyme.
The final concentration in the assay is 1-2 nM.
Test compounds should be prepared in 100% DMSO and transferred to the assay by a nano volume dispenser to reach the appropriate concentration and the appropriate DMSO concentration (0.25%) in the reaction.

[3] = Erythrocyte, P. falciparum 3D7 infected erythrocytes, 72 h incubation, PfLDH readout

T1 sequence (Q13547 whole entry): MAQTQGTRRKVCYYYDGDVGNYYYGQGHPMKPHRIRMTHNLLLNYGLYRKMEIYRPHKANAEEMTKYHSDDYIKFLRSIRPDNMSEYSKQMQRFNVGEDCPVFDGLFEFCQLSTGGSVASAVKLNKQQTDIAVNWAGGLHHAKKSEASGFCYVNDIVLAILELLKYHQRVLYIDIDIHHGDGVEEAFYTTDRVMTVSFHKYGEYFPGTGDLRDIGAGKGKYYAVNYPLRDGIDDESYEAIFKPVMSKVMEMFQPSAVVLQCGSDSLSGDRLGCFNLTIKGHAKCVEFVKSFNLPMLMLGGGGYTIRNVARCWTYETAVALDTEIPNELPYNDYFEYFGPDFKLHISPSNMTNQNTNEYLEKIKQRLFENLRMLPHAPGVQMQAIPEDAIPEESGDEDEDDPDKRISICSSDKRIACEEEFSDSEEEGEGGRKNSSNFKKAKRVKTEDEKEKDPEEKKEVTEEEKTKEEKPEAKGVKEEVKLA

| SMILES | EC50 [1, 3] [µM] | IC50 [2] [µM] | EC50 ([1]; P. falciparum 3D7, n=11) [µM] |
| --- | --- | --- | --- |
| CNC(=O)CCCCC[C@H](NC(=O)CC1=CSC2=NCCCN12)c1ncc(-c2ccc3ccccc3c2)[nH]1 [Entry 202, (S)-7-(2-(6,7-dihydro-5H-thiazolo[3,2-a]pyrimidin-3-yl)acetamido)-N-methyl-7-(5-(naphthalen-2-yl)-1H-imidazol-2-yl)heptanamide] | < 1 | 1 to 5 |  |
| CNC(=O)CCCCC[C@H](NC(=O)c1cccc(-n2cccn2)c1)c1ncc(-c2cc3ccccc3nc2OC)[nH]1 [Entry 156, (S)-N-(1-(5-(2-methoxyquinolin-3-yl)-1H-imidazol-2-yl)-7-(methylamino)-7-oxoheptyl)-3-(1H-pyrazol-1-yl)benzamide] | 1 to 5 | > 5 |  |
| CNC(=O)CCCCC[C@H](NC(=O)c1cncs1)c1ncc(-c2ccc(-c3ccccc3)cc2)[nH]1 [Entry 108, (S)-N-(1-(5-([1,1′-biphenyl]-4-yl)-1H-imidazol-2-yl)-7-(methylamino)-7-oxoheptyl)thiazole-5-carboxamide] | > 5 | > 5 |  |
| CNC(=O)CCCCC[C@H](NC(=O)C(C)n1cccn1)c1ncc(-c2cc3ccccc3nc2OC)[nH]1 (stereo partly drawn) [Entry 103] | 1 to 5 | > 5 |  |
| CNC(=O)CCCCC[C@H](NC(=O)Cn1cnnc1)c1ncc(-c2ccc3ccccc3c2)[nH]1 [Entry 116, (S)-7-(2-(4H-1,2,4-triazol-4-yl)acetamido)-N-methyl-7-(5-(naphthalen-2-yl)-1H-imidazol-2-yl)heptanamide] | 1 to 5 | 1 to 5 |  |
| CNC(=O)CCCCC[C@H](NC(=O)CN1CCOCC1)c1ncc(-c2ccc3ccccc3c2)[nH]1 [Entry 23, (S)-N-methyl-7-(2-morpholinoacetamido)-7-(5-(naphthalen-2-yl)-1H-imidazol-2-yl)heptanamide] | 1 to 5 | 1 to 5 |  |
| CNC(=O)CCCCC[C@H](NC(=O)c1cn2ccsc2n1)c1ncc(-c2ccc3ccccc3c2)[nH]1 [Entry 164, (S)-N-(7-(methylamino)-1-(5-(naphthalen-2-yl)-1H-imidazol-2-yl)-7-oxo-heptyl)imidazo[2,1-b]thiazole-6-carboxamide] | > 5 | > 5 |  |
| CNC(=O)CCCCC[C@H](NC(=O)OCc1ccccc1)c1ncc(-c2ccc(-c3cc[nH]n3)cc2)[nH]1 [Entry 37, (S)-benzyl(1-(5-(4-(1H-pyrazol-3-yl)phenyl)-1H-imidazol-2-yl)-7-(methylamino)-7-oxoheptyl)carbamate] | 1 to 5 | < 1 |  |
| CNC(=O)CCCCC[C@H](NC(=O)c1cncs1)c1ncc(-c2ccc(-c3ccn(C)n3)cc2)o1 [Entry 222, (S)-N-(1-(5-(4-(1-methyl-1H-pyrazol-3-yl)phenyl)oxazol-2-yl)-7-(methylamino)-7-oxoheptyl)thiazole-5-carboxamide] | 1 to 5 | > 5 |  |
| CNC(=O)CCCCC[C@H](NC(=O)c1cncs1)c1ncc(-c2cnc3[nH]ncc3c2)[nH]1 [Entry 159, (S)-N-(1-(5-(1H-pyrazolo[3,4-b]pyridin-5-yl)-1H-imidazol-2-yl)-7-(methylamino)-7-oxoheptyl)thiazole-5-carboxamide] | > 5 | > 5 |  |
| COc1nc2ccccc2cc1-c1cnc([C@H](CCCCCC(N)=O)OC(=O)C23CCN(CC2)CC3)o1 [Entry 55] | 1 to 5 | < 1 |  |
| CNC(=O)CCCCC[C@H](NC(=O)c1cscn1)c1ncc(-c2ccc(-c3ccn(C)n3)cc2)[nH]1 [Entry 209, (S)-N-(1-(5-(4-(1-methyl-1H-pyrazol-3-yl)phenyl)-1H-imidazol-2-yl)-7-(methylamino)-7-oxoheptyl)thiazole-4-carboxamide] | > 5 | > 5 |  |
| CNC(=O)CCCCC[C@H](NC(=O)c1cccc2nc(C)c(C)nc12)c1ncc(-c2ccc3ccccc3c2)[nH]1 [Entry 13, (S)-2,3-dimethyl-N-(7-(methylamino)-1-(5-(naphthalen-2-yl)-1H-imidazol-2-yl)-7-oxo-heptyl)quinoxaline-5-carboxamide] | 1 to 5 | 1 to 5 |  |
| CNC(=O)CCCCC[C@H](NC(=O)c1cncs1)c1ncc(-c2ccc3nc(OC)ccc3c2)[nH]1 [Entry 107, (S)-N-(1-(5-(2-methoxyquinolin-6-yl)-1H-imidazol-2-yl)-7-(methylamino)-7-oxoheptyl)thiazole-5-carboxamide] | < 1 | < 1 |  |
| CNC(=O)CCCCC[C@H](NC(=O)C12CCN(CC1)CC2)c1ncc(-c2ccc3cc(F)ccc3c2)[nH]1 [Entry 154, (S)-N-(1-(5-(6-fluoronaphthalen-2-yl)-1H-imidazol-2-yl)-7-(methylamino)-7-oxo-heptyl)quinuclidine-4-carboxamide] | < 1 | < 1 |  |
| CNC(=O)CCCCC[C@H](NC(=O)C12CCN(CC1)CC2)c1ncc(-c2ccc3ccccc3c2)[nH]1 [compound 126, (S)-N-(7-(methylamino)-1-(5-(naphthalen-2-yl)-1H-imidazol-2-yl)-7-oxo-heptyl)quinuclidine-4-carboxamide] | < 1 | < 1 | 0.293 |
| CNC(=O)CCCCC[C@H](NC(=O)c1cnc(C)s1)c1ncc(-c2ccc(-c3ccn(C)n3)cc2)o1 [Entry 225, (S)-2-methyl-N-(1-(5-(4-(1-methyl-1H-pyrazol-3-yl)phenyl)oxazol-2-yl)-7-(methylamino)-7-oxoheptyl)thiazole-5-carboxamide] | 1 to 5 | > 5 |  |
| CNC(=O)CCCCC[C@H](NC(=O)Cc1cnc2ccccn12)c1ncc(-c2ccc3ccncc3c2)[nH]1 [Entry 15, (S)-7-(2-(imidazo[1,2-a]pyridin-3-yl)acetamido)-7-(5-(isoquinolin-7-yl)-1H-imidazol-2-yl)-N-methylheptanamide] | 1 to 5 | < 1 |  |
| CNC(=O)CCCCC[C@H](NC(=O)c1cc(C)n(-c2ccccc2)n1)c1ncc(-c2ccc3ccccc3c2)[nH]1 [Entry 82, (S)-5-methyl-N-(7-(methylamino)-1-(5-(naphthalen-2-yl)-1H-imidazol-2-yl)-7-oxoheptyl)-1-phenyl-1H-pyrazole-3-carboxamide] | > 5 | > 5 |  |
| CNC(=O)CCCCC[C@H](NC(=O)c1cncs1)c1ncc(-c2cc3ccccc3nc2OC)[nH]1 [Entry 178, (S)-N-(1-(5-(2-methoxyquinolin-3-yl)-1H-imidazol-2-yl)-7-(methylamino)-7-oxoheptyl)thiazole-5-carboxamide] | < 1 |  |  |
| CNC(=O)CCCCC[C@H](NC(=O)[C@H]1CCN(C)C1)c1ncc(-c2ccc3ccccc3c2)[nH]1 [Entry 149, (S)-1-methyl-N-((S)-7-(methylamino)-1-(5-(naphthalen-2-yl)-1H-imidazol-2-yl)-7-oxo-heptyl)pyrrolidine-3-carboxamide] |  | 1 to 5 |  |
| COc1ccc2[nH]c(C)c(CC(=O)N[C@@H](CCCCCC(N)=O)c3ncc(-c4ccc5ccccc5c4)[nH]3)c2c1 [Entry 96, (S)-7-(2-(5-methoxy-2-methyl-1H-indol-3-yl)acetamido)-7-(5-(naphthalen-2-yl)-1H-imidazol-2-yl)heptanamide] | < 1 |  |  |
